Source: US10588888B2, “CNS-accessible pharmacological chaperones for treatment of acid β-glucosidase-related disease states” (Children's Hospital Medical Center, priority 2017, dated 2020)
Substitutions are numbered along the chain they refer to. Read-outs that look alike come from different tables or passages of the source.

Experiments:
[1] = target: T1, GCase (4L/4L and 4L;C* fibroblasts) (Mus musculus, UniProt P17439, V412L); assay: Immunofluorescence co-localization of GCase and Lamp1 in mutant fibroblasts; assay type: cell-based; conditions: vs untreated cells
T1 construct: Fibroblast cells from wild type (WT) and GCase mutant mice; endogenous in cells; host or cells: mouse fibroblasts from V394L/V394L (4L/4L) and 4L/4L; saposin C-/- (4L;C*) mice
T1 sequence (P17439 20-515 V412L): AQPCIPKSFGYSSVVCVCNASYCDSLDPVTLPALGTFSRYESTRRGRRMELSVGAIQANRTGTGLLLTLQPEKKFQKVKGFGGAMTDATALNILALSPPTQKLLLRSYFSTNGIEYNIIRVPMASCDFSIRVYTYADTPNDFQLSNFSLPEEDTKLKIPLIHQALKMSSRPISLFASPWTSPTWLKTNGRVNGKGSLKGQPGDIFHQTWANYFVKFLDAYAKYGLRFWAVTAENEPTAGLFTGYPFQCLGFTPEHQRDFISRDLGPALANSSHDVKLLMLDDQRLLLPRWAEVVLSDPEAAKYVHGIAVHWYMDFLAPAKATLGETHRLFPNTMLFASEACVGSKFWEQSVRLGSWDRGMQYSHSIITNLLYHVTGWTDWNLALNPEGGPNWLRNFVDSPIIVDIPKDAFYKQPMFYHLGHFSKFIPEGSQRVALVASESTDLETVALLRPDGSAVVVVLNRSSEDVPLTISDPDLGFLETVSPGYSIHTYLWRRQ
Protocol: (§1) FIG. 5. Increased GCase protein in lysosomes of mouse fibroblasts treated with M chaperone compounds. (A) GCase (green) was co-stained with lysosomal marker, Lamp1 (red). Co-localization of GCase and Lamp1 (orange) indicates lysosomal localization of GCase.
(§2) Fibroblast cells from wild type (WT) and GCase mutant mice, homozygous V394L/V394L (4L/4L) and 4L/4L/with saposin C−/− (4L;C*) were cultured in 10% Bovine Calf Serum/Dulbecco's Modified Eagle's medium (DMEM). The compounds were dissolved in Dimethyl sulfoxide (DMSO) at 5 mM as a stock solution and stored at −20° C. For cell treatment, the stock was diluted with DMEM and added to cells. The cells were incubated with the compounds for 5 days and changed with fresh media with the compound every two days.
(§3) The cells grown on the chamber slides were fixed in 4% paraformaldehyde for 30 mins, followed by washing twice in Phosphate-buffered saline. The cells were permeablized with 0.3% Triton X-100 in Phosphate-buffered saline and washed with Phosphate-buffered saline for three times. After blocking for 30 min in 1.5% BSA/0.5% gelatin diluted in Phosphate-buffered saline, primary antibody, mouse anti-Lamp1 (1:200) and goat anti-mGCase (1:200) were applied to the cells and incubated overnight at 4° C. The signals were detected using Donkey anti-goat-FITC (1:500) and goat anti-mouse-Texas Red (1:500) to the cognate primary antibody. The stained cells were mounted with antifade containing DAPI.

[2] = target: T2, WT GCase (Mus musculus, UniProt P17439); assay: Immunoblot of GCase protein in WT fibroblasts; assay type: cell-based; conditions: 10 μM, 5 days, vs untreated cells
T2 construct: Fibroblast cells from wild type (WT) and GCase mutant mice; endogenous in cells; host or cells: wild-type mouse fibroblasts
T2 sequence (P17439 20-515): T1 sequence (P17439 20-515 V412L) with L393V
Protocol: as §2
(§4) Cell pellets were collected and washed with Phosphate-buffered saline twice. The pellets were suspended in M-per lysis buffer. Freeze and thaw twice to break down the cell membrane. Protein concentration was determined by the bicinchoninic acid assay. The proteins were resolved on 4-12% NuPAGE gel (Invitrogen) and were transferred to PVDF membrane using iBlot 2 gel transfer device (Life Technologies) following manufactural instruction. The blotted membranes were incubated with Goat anti-mouse GCase (1:1000) in 1.5% BSA/1.5% milk/PBS buffer overnight at 4° C. followed by IRdye Donkey anti-Goat 1:5000. The signals were detected using LI-COR detection system according to manufacturer's instruction.

[3] = target: T3, mutant V394L GCase protein (Mus musculus, UniProt P17439, V412L); assay: Immunoblot of GCase protein in mutant fibroblasts; assay type: cell-based; conditions: 4L/4L and 4L;C* fibroblasts, 10 μM, 5 days, vs untreated cells
T3 construct: Fibroblast cells from wild type (WT) and GCase mutant mice; endogenous in cells; host or cells: mouse fibroblasts from V394L/V394L (4L/4L) and 4L/4L; saposin C-/- (4L;C*) mice
T3 sequence (P17439 20-515 V412L): T1 sequence (P17439 20-515 V412L)
Protocol: as §2, §4

[4] = target: T4, GCase (WT fibroblasts) (Mus musculus, UniProt P17439); assay: Immunofluorescence co-localization of GCase and Lamp1 in WT fibroblasts; assay type: cell-based; conditions: vs untreated cells
T4 construct: Fibroblast cells from wild type (WT) and GCase mutant mice; endogenous in cells; host or cells: wild-type mouse fibroblasts
T4 sequence (P17439 20-515): T1 sequence (P17439 20-515 V412L) with L393V
Protocol: as §1, §2, §3

[5] = target: T2, WT GCase; assay: GCase activity in WT fibroblasts treated with compounds; assay type: cell-based; conditions: 5 days, 10 μM, vs untreated cells
Protocol: as §2
(§5) Cell pellets were collected and washed with Phosphate-buffered saline twice. The cell pellets were homogenized in 1% Na-taurocholate/1% Triton X-100 (Tc/Tx). GCase activity was determined fluorometrically with 4MU-Glc as substrate in 0.25% Tc/Tx diluted in 0.1M citrate phosphate (CP) buffer (pH 5.6) as described. Protein concentrations of cells and tissues were determined by BCA assay using BSA as standard.

[6] = target: T5, Mutant GCase (V394L) (Mus musculus, UniProt P17439, V412L); assay: GCase activity in mutant GCase fibroblasts treated with compounds; assay type: cell-based; conditions: for GCase activity (in words): 4L/4L and 4L;C* fibroblasts, 10 μM, vs untreated cells
T5 construct: Fibroblast cells from wild type (WT) and GCase mutant mice; endogenous in cells; host or cells: mouse fibroblasts from V394L/V394L (4L/4L) and 4L/4L; saposin C-/- (4L;C*) mice
T5 sequence (P17439 20-515 V412L): T1 sequence (P17439 20-515 V412L)
Protocol: (§6) FIG. 1. Screen of small molecules with NCGC607 as a positive control. Mutant GCase (V394L) fibroblasts were incubated with small molecules for 5 days at various concentration.
as §2, §5

[7] = tested on: MDR1-MDCK cell monolayers; assay: MDR1-MDCK assay, blood-brain-barrier penetration potential; assay type: in vitro ADME; conditions: MDR1-MDCK
Protocol: (§7) MDR1-MDCK cell monolayers were grown to confluence on collagen-coated, microporous membranes in 12-well assay plates. The permeability assay buffer was Hanks' balanced salt solution containing 10 mM HEPES and 15 mM glucose at a pH of 7.4. The buffer in the receiver chamber also contained 1% bovine serum albumin. The dosing solution concentration was 5 μM of test article in the assay buffer. Cell monolayers were dosed on the apical side (A-to-B) or basolateral side (B-toA) and incubated at 37° C. with 5% CO2 in a humidified incubator. Samples were taken from the donor and receiver chambers at 120 minutes. Each determination was performed in duplicate. The flux of lucifer yellow was also measured post-experimentally for each monolayer to ensure no damage was inflicted to the cell monolayers during the flux period. All samples were assayed by LC-MS/MS using electrospray ionization.
(§8) The apparent permeability (Papp) and percent recovery were calculated as follows: Papp=(dCr/dt)×Vr/(A×CA) Percent Recovery=100×((Vr×Cr^final)+(Vd×Cd^final))/(Vd×CN)
(§9) Where, dCr/dt is the slope of the cumulative concentration in the receiver compartment versus time in μM s^−1; Vr is the volume of the receiver compartment in cm^3; Vd is the volume of the donor compartment in cm^3; A is the area of the insert (1.13 cm^2 for 12-well); CA is the average of the nominal dosing concentration and the measured 120 minute donor concentration in μM; CN is the nominal concentration of the dosing solution in μM; Cr final is the cumulative receiver concentration in M at the end of the incubation period; Cd final is the concentration of the donor in M at the end of the incubation period.
(§10) Efflux ratio (ER) is defined as Papp (B-to-A)/Papp (A-to-B).

[8] = tested on: MDR1; assay: as above; assay type: in vitro ADME; conditions: dog, 5 μM, 120 minutes
Protocol: as §7, §8, §9, §10

[9] = tested on: MDR1 (P-gp); assay: as above; assay type: in vitro ADME; conditions: dog; for Papp A→B at 120 min, 5 μM: MDCK-MDR1, pH 7.4, A to B; for Papp B→A at 120 min, 5 μM: MDCK-MDR1, pH 7.4, B to A
Protocol: as §7, §8, §9, §10

[10] = tested on: Mutant GCase (V394L) fibroblasts; assay: Toxicity in small molecule screen on mutant GCase fibroblasts; assay type: cell-based, mouse; conditions: 5 days, various concentration
Protocol: as §6, §2

[11] = target: T6, Recombinant GCase (Homo sapiens, UniProt P04062); assay: Recombinant GCase activity with or without compound; assay type: biochemical; conditions: for Inhibition of GCase (in words): recombinant GCase
T6 sequence (P04062 40-536): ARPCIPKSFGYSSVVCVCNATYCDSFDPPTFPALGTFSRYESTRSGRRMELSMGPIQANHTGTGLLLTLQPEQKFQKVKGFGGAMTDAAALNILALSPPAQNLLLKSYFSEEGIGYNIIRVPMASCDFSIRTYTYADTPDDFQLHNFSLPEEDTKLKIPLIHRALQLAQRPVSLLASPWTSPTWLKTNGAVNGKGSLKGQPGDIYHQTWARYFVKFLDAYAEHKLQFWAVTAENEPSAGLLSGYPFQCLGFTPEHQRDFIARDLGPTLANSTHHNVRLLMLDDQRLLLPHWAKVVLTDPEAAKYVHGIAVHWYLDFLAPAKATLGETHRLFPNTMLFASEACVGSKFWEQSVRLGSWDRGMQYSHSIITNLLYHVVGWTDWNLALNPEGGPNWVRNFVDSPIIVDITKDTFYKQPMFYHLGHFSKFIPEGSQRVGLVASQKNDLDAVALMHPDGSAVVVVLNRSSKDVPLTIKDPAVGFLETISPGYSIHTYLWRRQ
Protocol: FIG. 2. […] Recombinant GCase was incubated with or without compound 216 at various concentration and GCase activity was determined.

[12] = average, 5 μM, read-out: Papp AVE
[13] = replicate 1, 5 μM, read-out: Papp R1
[14] = replicate 2, 5 μM, read-out: Papp R2

| Structure (SMILES) | Lysosomal localization of GCase protein (Pearson index, in words) [1] | GCase protein levels (in words) [2] | GCase protein levels (in words) [3] | Lysosomal localization of GCase protein (Pearson index, in words) [4] | GCase activity (in words) [5] | GCase activity (in words) ([6]; 5 days) | other results |
| --- | --- | --- | --- | --- | --- | --- | --- |
| O=C(COc1ccccc1C(=O)NCC1CCCO1)Nc1ccc(Br)cc1 (stereo in doubt) [Compound 6, 2-((4-bromophenylcarbamoyl)methoxy)-N(((R)tetrahydrofuran-2-yl)methyl)benzamide] | enhanced | increased | increased | enhanced | Increased | Increased | – |
| O=C(COc1ccccc1C(=O)NC[C@@H]1CCCO1)Nc1ccc(Br)cc1 [Compound 8, 2-((4-bromophenylcarbamoyl)methyoxy)-N—(((S)-tetrahydrofuran-2-yl)methyl)benzamide] | enhanced | increased | increased | enhanced | Increased | Increased | Activity in the mutant GCase fibroblasts assay (comparison of stereoisomers) ([6]; mutant GCase fibroblasts): better activity than Compound 6; Brain Penetration Classification [7]: High; Brain Penetration Classification ([7]; listed as #8): high; recovery at 120 min, 5 μM ([8]; MDCK-MDR1, pH 7.4, A to B): 77%; recovery at 120 min, 5 μM ([8]; MDCK-MDR1, pH 7.4, B to A): 86%; Papp A→B at 120 min, 5 μM [9, 12]: 32.1 ×10⁻⁶ cm/s; Papp A→B at 120 min, 5 μM [9, 13]: 33.4 ×10⁻⁶ cm/s; Papp A→B at 120 min, 5 μM [9, 14]: 30.8 ×10⁻⁶ cm/s; Papp B→A at 120 min, 5 μM [9, 12]: 34.4 ×10⁻⁶ cm/s; Papp B→A at 120 min, 5 μM [9, 13]: 31.8 ×10⁻⁶ cm/s; Papp B→A at 120 min, 5 μM [9, 14]: 37 ×10⁻⁶ cm/s; efflux ratio at 120 min, 5 μM ([9]; MDCK-MDR1, pH 7.4, Papp (B-to-A)/Papp (A-to-B), P-gp): 1.1 |
| O=C(COc1ccccc1C(=O)NCC1CCCO1)Nc1ccc(Br)cc1 (centres unmarked) [Compound 216] | enhanced | increased | increased | enhanced | Increased | Increased | Toxicity compared to 607 [10]: reduced toxicity; Inhibition of GCase (in words) [11]: non-inhibitory; AC50 ([11]; recombinant GCase incubated with compound at various concentration, read-out: AC50, activation effect on GCase): 10.1 µM; Inhibition of GCase (in words) ([11]; listed as compound 216): did not inhibit; Activation function on GCase compared to NCGC607 ([6]; V394L fibroblasts, 5 days, various concentration): superior |
